Experimental findings from patent publication US20100016335A1, “NOVEL AMINOPYRIDINE DERIVATIVES HAVING AURORA A SELECTIVE INHIBITORY ACTION” (priority 2006, published 2010) are described below.

The target in one test is T1, human Aurora A (Homo sapiens, UniProt O14965).
T1 construct: His (N); made in house; host or cells: Escherichia coli BL21-CodonPlus(DE3)-RIL
T1 sequence (O14965 1-403): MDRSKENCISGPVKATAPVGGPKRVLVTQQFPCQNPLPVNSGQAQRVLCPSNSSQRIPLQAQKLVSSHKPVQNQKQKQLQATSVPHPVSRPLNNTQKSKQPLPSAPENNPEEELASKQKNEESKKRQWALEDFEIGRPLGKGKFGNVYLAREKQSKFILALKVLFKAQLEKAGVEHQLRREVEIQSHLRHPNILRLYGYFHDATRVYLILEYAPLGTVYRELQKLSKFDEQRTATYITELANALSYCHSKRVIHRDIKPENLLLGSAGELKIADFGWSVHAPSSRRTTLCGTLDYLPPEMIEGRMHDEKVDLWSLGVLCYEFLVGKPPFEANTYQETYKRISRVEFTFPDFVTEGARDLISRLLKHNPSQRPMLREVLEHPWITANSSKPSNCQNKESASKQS
The test is described as follows: Aurora A inhibitory activity (IMAP fluorescence polarization phosphorylation assay). Format: biochemical. The settings on record: 20 μM ATP, 30° C., 120 minutes. The source says:
cDNA of N-terminal His-tagged human Aurora A was integrated into an expression vector, which was then highly expressed in Escherichia coli BL21-CodonPlus(DE3)-RIL cells. The Escherichia coli was harvested and lysed, and then the His-tagged human Aurora A protein was applied onto a nickel chelate column and eluted from the column with imidazole. The active fractions were desalted with a desalting column to give a purified enzyme.
For the phosphorylation reaction, the method by Upstate, Inc. [Kinase Profiler™ Assay Protocols] was referred to, and phosphorylation of the substrate was detected using IMAP® technology (Molecular Devices, Co. Ltd.) (Gaudet E W. et. al, J. Biomol. Screen, 8, 164-175 (2003)). Concretely, the phosphorylation reaction and the detection were carried out as follows:
The phosphorylation reaction was conducted using 384 well plate, and the reaction volume was 10 μl/well. The reaction buffer is comprised of 50 mM Tris-chloride buffer (pH 7.4), 15 mM magnesium acetate, and 0.2 mM ethylenediamine-N,N,N′,N′-tetraacetic acid (EDTA). Thereto, the purified Aurora A protein, 100 nM of the peptide substrate, and 20 μM of adenosine 5′-triphosphate (ATP) were added, and then the reaction was carried out at 30° C. for 120 minutes.
Thereafter, in order to terminate and detect the reaction, 30 μl of the IMAP (registered trademark) binding reagent (IMAP Progressive Binding Reagent, R7284) that had been diluted (1:400) in the 1×IMAP binding buffer A (IMAP Progressive Binding Buffer A, 5× stock, R7282) was added to each well. The solution stood still for 60 minutes in the dark, and then fluorescence polarization was measured using a high-end microplate reader (excitation wavelength: 485 nm; emission wavelength: 520 nm).
The compound to be tested was added to the reaction system such that a dilution series of the compound in dimethylsulfoxide (DMSO) was prepared, and then 0.5 μL of this solution was added for the testing to each well. Each control well was provided by adding 0.5 μL of DMSO to the well in place of the DMSO solution containing the compound to be tested.

For test [1], the target named is T2, GST-tagged human Aurora B(AurB)/His-tagged human INCENP complex proteins (Homo sapiens, UniProt Q96GD4).
T2 construct: GST; purchased Carna Biosciences, Inc
Nature of the test: Aurora B inhibitory activity (Method A, IMAP assay kit). It counts as biochemical. The settings on record: 40 μM ATP, 25° C., 45 minutes. The procedure: An assay development kit for IMAP (registered trademark) (Aurora B), purchased from Carna Biosciences, Inc., was used for phosphorylation reaction, and the phosphorylation of a substrate was detected using the IMAP technology. […] Using the same, the phosphorylation reaction was conducted in accordance with a partially revised protocol attached to the kit, and then the phosphorylation of the substrate was detected using the IMAP technology.
For the phosphorylation reaction, 384 well plate was used, and the reaction volume was 10 μl/well. The composition of the reaction buffer (assay buffer) is comprised of 20 mM of HEPES buffer (pH 7.4), 0.01% Tween-20, and 2 mM of dithiothreitol (DTT). Thereto, AurB/INCENP complex protein, 100 nM of the substrate, and 40 μM of ATP, and 1 mM of magnesium salt were added, and then the reaction was conducted at 25° C. for 45 minutes. Thereafter, in order to terminate and detect the reaction, 30 μl of the IMAP (registered trademark) binding reagent (IMAP Progressive Binding Reagent, R7284) that had been diluted (1:400) in the 1× IMAP binding buffer A (IMAP Progressive Binding Buffer A, 5× stock, R7282) was added to each well.
The compound to be tested was added to the reaction system such that a dilution series of the compound in DMSO was prepared, and then 0.5 μL of this solution was added for the testing to each well. Each control well was provided by adding 0.5 μL of DMSO to the well in place of the DMSO solution containing the compound to be tested.

Where a name gives a salt, the structure may show the parent alone.

T2 sequence (Q96GD4 whole entry): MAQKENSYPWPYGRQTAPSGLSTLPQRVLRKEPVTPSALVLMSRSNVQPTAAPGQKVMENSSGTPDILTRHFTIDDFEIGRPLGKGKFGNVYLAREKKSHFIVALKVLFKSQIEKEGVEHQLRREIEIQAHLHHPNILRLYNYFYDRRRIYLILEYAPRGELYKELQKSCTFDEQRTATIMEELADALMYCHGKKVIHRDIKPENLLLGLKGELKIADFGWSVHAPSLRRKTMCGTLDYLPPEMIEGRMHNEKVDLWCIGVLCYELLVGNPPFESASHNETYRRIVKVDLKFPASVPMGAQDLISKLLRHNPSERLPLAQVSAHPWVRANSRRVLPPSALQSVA
T2 sequence (Q9NQS7 803-916 partner limits assumed): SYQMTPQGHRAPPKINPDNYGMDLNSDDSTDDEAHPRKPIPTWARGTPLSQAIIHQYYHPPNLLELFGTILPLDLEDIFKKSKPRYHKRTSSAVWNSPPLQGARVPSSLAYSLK

In the case of `CC(=O)N[C@]1(Cc2cccc(Nc3nccs3)n2)CC[C@@H](Oc2cccc(Cl)c2F)CC1` [Example 19, N-(trans-4-(3-chloro-2-fluorophenoxy)-1-((6-(1,3-thiazol-2-ylamino)pyridin-2-yl)methyl)cyclohexyl)acetamide], the IC50 (in general, the concentration at which inhibition is half-maximal) was 0.82 nM at human Aurora A and 320 nM in test [1].

Regarding `N#C[C@]1(Cc2cccc(Nc3cc[nH]n3)n2)CC[C@@H](Oc2cccc(Cl)c2F)CC1` [Example 16, trans-4-(3-chloro-2-fluorophenoxy)-1-((6-(1H-pyrazol-3-ylamino)pyridin-2-yl)methyl)cyclohexanecarbonitrile], the IC50 at human Aurora A was 1.6 nM; in test [1], above 1000 nM.

`Fc1c(O[C@H]2CC[C@](Cc3cccc(Nc4cc[nH]n4)n3)(c3n[nH]c(=S)o3)CC2)cccc1C(F)(F)F` [Example 42, 5-(trans-4-(2-fluoro-3-(trifluoromethyl)phenoxy)-1-((6-(1H-pyrazol-3-ylamino)pyridin-2-yl)methyl)cyclohexyl)-1,3,4-oxadiazole-2(3H)-thione trifluoroacetate]: the IC50 against human Aurora A amounted to 0.23 nM; in test [1] it was 142 nM.

For `O=C(O)[C@]1(Cc2cccc(Nc3nccs3)n2)CC[C@@H](Oc2cccc(Cl)c2)CC1` [Example 5, trans-4-(3-chlorophenoxy)-1-((6-(1,3-thiazol-2-ylamino)pyridin-2-yl)methyl)cyclohexanecarboxylic acid hydrochloride], the values for the IC50 (against human Aurora A; in test [1]) were 0.12 nM and 130 nM, respectively.

Turning to `Cc1cc(Nc2cc[nH]n2)nc(C[C@]2(c3n[nH]c(=O)o3)CC[C@H](Oc3cccc(Cl)c3F)CC2)n1` [Example 41, 5-(trans-4-(3-chloro-2-fluorophenoxy)-1-((4-methyl-6-(1H-pyrazol-3-ylamino)pyrimidin-2-yl)methyl)cyclohexyl)-1,3,4-oxadiazol-2(3H)-one trifluoroacetate], the IC50 against human Aurora A was determined as 0.18 nM; in test [1], 110 nM.

With `CN(C)C(=O)[C@]1(Cc2cccc(Nc3cc[nH]n3)n2)CC[C@@H](Oc2cccc(Cl)c2F)CC1` [Example 13, trans-4-(3-chloro-2-fluorophenoxy)-N,N-dimethyl-1-((6-(1H-pyrazol-3-ylamino)pyridin-2-yl)methyl)cyclohexanecarboxamide], the IC50 against human Aurora A is 1.3 nM; in test [1], above 1000 nM.

`Cc1nnc([C@]2(Cc3cccc(Nc4cc[nH]n4)n3)CC[C@@H](Oc3cccc(C(F)(F)F)c3F)CC2)s1` [Example 28, 6-((trans-4-(2-fluoro-3-(trifluoromethyl)phenoxy)-1-(5-methyl-1,3,4-thiadiazol-2-yl)cyclohexyl)methyl)-N-1H-pyrazol-3-ylpyridin-2-amine]: the IC50 was 3.5 nM on human Aurora A and 710 nM in test [1].

For `CNC(=O)[C@]1(Cc2cccc(Nc3cc[nH]n3)n2)CC[C@@H](Oc2cccc(Cl)c2F)CC1` [Example 12, trans-4-(3-chloro-2-fluorophenoxy)-N-methyl-1-((6-(1H-pyrazol-3-ylamino)pyridin-2-yl)methyl)cyclohexanecarboxamide], the IC50 against human Aurora A is 2.5 nM; in test [1], above 1000 nM.

With `O=C(O)[C@]1(Cc2cccc(Nc3cc[nH]n3)n2)CC[C@@H](Oc2cccc(Cl)c2F)CC1` [Example 10, trans-4-(3-chloro-2-fluorophenoxy)-1-((6-(1H-pyrazol-3-ylamino)pyridin-2-yl)methyl)cyclohexanecarboxylic acid trifluoroacetate], the IC50 was 0.15 nM against human Aurora A and 200 nM in test [1].

As to `N=c1[nH]nc([C@]2(Cc3cccc(Nc4cc[nH]n4)n3)CC[C@@H](Oc3cccc(C(F)(F)F)c3F)CC2)o1` [Example 21, 6-((trans-4-(2-fluoro-3-(trifluoromethyl)phenoxy)-1-(5-imino-4,5-dihydro-1,3,4-oxadiazol-2-yl)cyclohexyl)methyl)-N-1H-pyrazol-3-ylpyridin-2-amine trifluoroacetate], the values for the IC50 (against human Aurora A; in test [1]) were 2.8 nM and above 1000 nM, respectively.

In the case of `Fc1c(O[C@H]2CC[C@](Cc3cccc(Nc4cc[nH]n4)n3)(c3nnco3)CC2)cccc1C(F)(F)F` [Example 22, 6-((trans-4-(2-fluoro-3-(trifluoromethyl)phenoxy)-1-(1,3,4-oxadiazol-2-yl)cyclohexyl)methyl)-N-1H-pyrazol-3-ylpyridin-2-amine], the IC50 on human Aurora A was 4.1 nM; in test [1], above 1000 nM.

Consider `O=C(O)[C@]1(Cc2cc(Br)cc(Nc3nccs3)n2)CC[C@@H](Oc2cccc(Cl)c2F)CC1` [Example 40, trans-1-((4-bromo-6-(1,3-thiazol-2-ylamino)pyridin-2-yl)methyl)-4-(3-chloro-2-fluorophenoxy)cyclohexanecarboxylic acid hydrochloride], for which the IC50 against human Aurora A is 0.09 nM; in test [1] it was 95 nM.

As for `Cc1nnc([C@]2(Cc3cccc(Nc4cc[nH]n4)n3)CC[C@@H](Oc3cccc(Cl)c3F)CC2)o1` [Example 25, 6-((trans-4-(3-chloro-2-fluorophenoxy)-1-(5-methyl-1,3,4-oxadiazol-2-yl)cyclohexyl)methyl)-N-1H-pyrazol-3-ylpyridin-2-amine], the IC50 at human Aurora A amounted to 0.87 nM; in test [1] it was 690 nM.

As to `O=C(O)[C@]1(Cc2cccc(Nc3nccs3)n2)CC[C@@H](Oc2cccc(C(F)(F)F)c2)CC1` [Example 7, trans-1-((6-(1,3-thiazol-2-ylamino)pyridin-2-yl)methyl)-4-(3-(trifluoromethyl)phenoxy)cyclohexanecarboxylic acid hydrochloride], the results for the IC50 (at human Aurora A; in test [1]) were 0.17 nM and 130 nM, respectively.

For the molecule `Fc1c(Cl)cccc1O[C@H]1CC[C@](Cc2cccc(Nc3cc[nH]n3)n2)(c2nn[nH]n2)CC1` [Example 17, 6-((trans-4-(3-chloro-2-fluorophenoxy)-1-(2H-tetrazol-5-yl)cyclohexyl)methyl)-N-1H-pyrazol-3-ylpyridin-2-amine trifluoroacetate], the results for the IC50 (on human Aurora A; in test [1]) were 0.45 nM and 350 nM, respectively.
